Values after ≈ are worked out from the molar mass of the structure shown. Active and inactive are the calls of the source. The calls are words filed in the database; no cut-off is given here.
Tests used:
EVSA-T = experiment: Cytotoxicity against human EVSA-T cells; format: functional, cell-based
[1] = Aqueous solubility of the compound; format: physicochemical; conditions: aqueous solution
MCF7 [2] = experiment: Cytotoxicity against human MCF7 cells; format: functional, cell-based
MDA-MB-231 = experiment: Cytotoxicity against ERalpha negative human MDA-MB-231 cells; format: functional, cell-based
PC-3 = experiment: Cytotoxicity against ERbeta positive human PC3 cells; format: functional, cell-based
MCF7 [3] = experiment: Cytotoxicity against ERalpha positive human MCF7 cells; format: functional, cell-based
A2780 = experiment: Cytotoxicity against ERbeta negative human A2780 cells; format: functional, cell-based
[4] = Cytotoxicity against human H226 cells; format: functional, cell-based; conditions: NCI-H226
[5] = test system: M19 melanoma cell line (human); experiment: Cytotoxicity against human M19 melanoma cells
WiDr = experiment: Cytotoxicity against human WIDR cells; format: functional, cell-based
[6] = Cytotoxicity against human IGROV cells; format: functional, cell-based
A498 = experiment: Cytotoxicity against human A498 cells; format: functional, cell-based
[7] = Half life in presence of 30 ug/mL beta-glucuronidase assessed as taxol release at 30 ug/mL; format: ADME
LoVo [8] = experiment: Ratio of IC50 of drug for human LoVo cells to IC50 of taxol for human LoVo cells; format: functional
LoVo [9] = experiment: Cytotoxicity against human LoVo cells in presence of beta-glucuronidase; format: functional, cell-based
[10] = Half life in DTT buffer assessed as taxol release; format: ADME
OVCAR-3 [11] = experiment: Cytotoxicity against human OVCAR-3 cells; format: functional, cell-based
OVCAR-3 [12] = experiment: Cytotoxicity against human OVCAR-3 cells in presence of beta-glucuronidase; format: functional, cell-based

SMILES | IC50 (EVSA-T) | IC50 (MCF7 [2]) | IC50 (MDA-MB-231) | IC50 (PC-3) | IC50 (MCF7 [3]) | IC50 [4] | IC50 [5] | IC50 (WiDr) | IC50 [6] | IC50 (A498) | other results
CC(=O)O[C@H]1C(=O)[C@]2(C)[C@@H](OC(=O)C[C@H](O)C(=O)O)C[C@H]3OC[C@@]3(OC(C)=O)[C@H]2[C@H](OC(=O)c2ccccc2)[C@]2(O)C[C@H](OC(=O)[C@H](OC(=O)C[C@H](O)C(=O)O)[C@@H](NC(=O)c3ccccc3)c3ccccc3)C(C)=C1C2(C)C | 0.059 µg/mL (≈ 0.0543 µM) | 0.069 µg/mL (≈ 0.0635 µM) | – | – | – | – | – | – | – | – | solubility [1]: 500 µg/mL (≈ 460 µM)
CC(=O)O[C@H]1C(=O)[C@@]2(C)[C@H]([C@H](OC(=O)c3ccccc3)[C@]3(O)C[C@H](OC(=O)[C@H](OC(=O)/C=C/C[C@@H]4C[C@H]5[C@@H]6CCc7cc(O)ccc7[C@H]6CC[C@]5(C)[C@H]4O)[C@@H](NC(=O)c4ccccc4)c4ccccc4)C(C)=C1C3(C)C)[C@]1(OC(C)=O)CO[C@@H]1C[C@@H]2O | – | – | 22 nM | 73 nM | 39 nM | – | – | – | – | – | IC50 (A2780): 180 nM
CC(=O)O[C@H]1C(=O)[C@@]2(C)[C@H]([C@H](OC(=O)c3ccccc3)[C@]3(O)C[C@H](OC(=O)[C@H](OC(=O)OC/C=C/c4ccc([N+](=O)[O-])cc4)[C@@H](NC(=O)c4ccccc4)c4ccccc4)C(C)=C1C3(C)C)[C@]1(OC(C)=O)CO[C@@H]1C[C@@H]2O | 0.221 µg/mL (≈ 0.209 µM) | 0.186 µg/mL (≈ 0.176 µM) | – | – | – | 0.187 µg/mL (≈ 0.177 µM) | 0.384 µg/mL (≈ 0.363 µM) | 0.308 µg/mL (≈ 0.291 µM) | 0.62 µg/mL (≈ 0.585 µM) | 0.187 µg/mL (≈ 0.177 µM) | –
CC(=O)O[C@H]1C(=O)[C@@]2(C)[C@H]([C@H](OC(=O)c3ccccc3)[C@]3(O)C[C@H](OC(=O)[C@H](OC(=O)N(C)CCN(C)C(=O)[C@H](CCCCN)NC(=O)[C@H](Cc4ccccc4)NC(=O)[C@@H](C)N)[C@@H](NC(=O)c4ccccc4)c4ccccc4)C(C)=C1C3(C)C)[C@]1(OC(C)=O)CO[C@@H]1C[C@@H]2O.Cl | 0.0072 µg/mL | 0.0066 µg/mL | 4.5 nM | 77 nM | 4.9 nM | 0.021 µg/mL | 0.017 µg/mL | 0.01 µg/mL | 0.011 µg/mL | 0.038 µg/mL | –
CC(=O)O[C@H]1C(=O)[C@@]2(C)[C@H]([C@H](OC(=O)c3ccccc3)[C@]3(O)C[C@H](OC(=O)C(OC(=O)N(C)CCN(C)C(=O)OCc4ccc(O[C@@H]5O[C@H](C(=O)O)[C@@H](O)[C@H](O)[C@H]5O)c(N)c4)[C@@H](NC(=O)c4ccccc4)c4ccccc4)C(C)=C1C3(C)C)[C@]1(OC(C)=O)CO[C@@H]1C[C@@H]2O (stereo partly specified) | – | – | – | – | – | – | – | – | – | – | t1/2 [7]: 10 min; Ratio IC50 (LoVo [8]): 153; Activity (LoVo [9]): inactive
Cn1c(=O)oc2ccc([N+](=O)[O-])cc21 | – | – | – | – | – | – | – | – | – | – | Ratio IC50 (LoVo [8]): 3000; Activity (LoVo [9]): inactive
CC(=O)O[C@H]1C(=O)[C@@]2(C)[C@H]([C@H](OC(=O)c3ccccc3)[C@]3(O)C[C@H](OC(=O)[C@H](OC(=O)N(C)CCN(C)C(=O)[C@H](CCCCN)NC(=O)[C@H](CC(C)C)NC(=O)[C@H](N)C(C)C)[C@@H](NC(=O)c4ccccc4)c4ccccc4)C(C)=C1C3(C)C)[C@]1(OC(C)=O)CO[C@@H]1C[C@@H]2O.Cl | 0.0052 µg/mL | 0.0069 µg/mL | 4.5 nM | 77 nM | 4.9 nM | 0.025 µg/mL | 0.024 µg/mL | 0.011 µg/mL | 0.026 µg/mL | 0.045 µg/mL | –
CC(=O)O[C@H]1C(=O)[C@@]2(C)[C@H]([C@H](OC(=O)c3ccccc3)[C@]3(O)C[C@H](OC(=O)[C@@H](OC(=O)/C=C/C[C@@H]4C[C@H]5[C@@H]6CCc7cc(O)ccc7[C@H]6CC[C@]5(C)[C@H]4O)[C@@H](NC(=O)c4ccccc4)c4ccccc4)C(C)=C1C3(C)C)[C@]1(OC(C)=O)CO[C@@H]1C[C@@H]2O | – | – | 2200 nM | 120 nM | 1600 nM | – | – | – | – | – | IC50 (A2780): 8300 nM
CC(=O)O[C@H]1C(=O)[C@@]2(C)[C@H]([C@H](OC(=O)c3ccccc3)[C@]3(O)C[C@H](OC(=O)[C@H](OC(=O)N(C)c4cc([N+](=O)[O-])ccc4O[C@@H]4O[C@H](C(=O)O)[C@@H](O)[C@H](O)[C@H]4O)[C@@H](NC(=O)c4ccccc4)c4ccccc4)C(C)=C1C3(C)C)[C@]1(OC(C)=O)CO[C@@H]1C[C@@H]2O | – | – | – | – | – | – | – | – | – | – | Ratio IC50 (LoVo [8]): 722; IC50 (LoVo [9]): 100 nM
CC(=O)O[C@H]1C(=O)[C@@]2(C)[C@H]([C@H](OC(=O)c3ccccc3)[C@]3(O)C[C@H](OC(=O)[C@H](OC(=O)C(C)(C)CCSSCC(NC(=O)CCC(N)C(=O)O)C(=O)NCC(=O)O)[C@@H](NC(=O)c4ccccc4)c4ccccc4)C(C)=C1C3(C)C)[C@]1(OC(C)=O)CO[C@@H]1C[C@@H]2O (stereo partly specified) | – | – | – | – | – | – | – | – | – | – | t1/2 [10]: 60 min
CC(=O)O[C@H]1C(=O)[C@@]2(C)[C@H]([C@H](OC(=O)c3ccccc3)[C@]3(O)C[C@H](OC(=O)[C@H](OC(=O)OCc4ccc(NC(=O)[C@H](CCCCN)NC(=O)[C@H](CC(C)C)NC(=O)[C@H](N)C(C)C)cc4)[C@@H](NC(=O)c4ccccc4)c4ccccc4)C(C)=C1C3(C)C)[C@]1(OC(C)=O)CO[C@@H]1C[C@@H]2O.Cl | 0.0093 µg/mL | 0.0092 µg/mL | – | – | – | 0.016 µg/mL | 0.02 µg/mL | 0.011 µg/mL | 0.027 µg/mL | > 0.06 µg/mL | –
CC(=O)O[C@H]1C(=O)[C@@]2(C)[C@H]([C@H](OC(=O)c3ccccc3)[C@]3(O)C[C@H](OC(=O)[C@H](OC(=O)N(C)CCN(C)C(=O)OCc4ccc(O[C@@H]5O[C@H](C(=O)O)[C@@H](O)[C@H](O)[C@H]5O)c(N)c4)[C@@H](NC(=O)OC(C)(C)C)c4ccccc4)C(C)=C1C3(C)C)[C@]1(OC(C)=O)CO[C@@H]1C[C@@H]2O | – | – | – | – | – | – | – | – | – | – | t1/2 [7]: 10 min; Ratio IC50 (LoVo [8]): 187; Activity (LoVo [9]): inactive
CC(=O)O[C@H]1C(=O)[C@@]2(C)[C@H]([C@H](OC(=O)c3ccccc3)[C@]3(O)C[C@H](OC(=O)[C@H](OC(=O)Cc4ccc(NC(=O)O[C@@H]5O[C@H](C(=O)O)[C@@H](O)[C@H](O)[C@H]5O)cc4)[C@@H](NC(=O)c4ccccc4)c4ccccc4)C(C)=C1C3(C)C)[C@]1(OC(C)=O)CO[C@@H]1C[C@@H]2O | – | – | – | – | – | – | – | – | – | – | IC50 (OVCAR-3 [11]): 0.23 nM; IC50 (OVCAR-3 [12]): 0.23 nM
CC(=O)O[C@H]1C(=O)[C@@]2(C)[C@H]([C@H](OC(=O)c3ccccc3)[C@]3(O)C[C@H](OC(=O)[C@H](OC(=O)C(C)(C)CCSSc4ccccn4)[C@@H](NC(=O)c4ccccc4)c4ccccc4)C(C)=C1C3(C)C)[C@]1(OC(C)=O)CO[C@@H]1C[C@@H]2O | – | – | – | – | – | – | – | – | – | – | t1/2 [10]: 4 min
CC(=O)O[C@H]1C(=O)[C@@]2(C)[C@H]([C@H](OC(=O)c3ccccc3)[C@]3(O)C[C@H](OC(=O)[C@H](OC(=O)CCC(=O)O[C@@H]4C[C@]5(C)[C@@H](O)CC[C@H]5[C@@H]5CCc6cc(O)ccc6[C@H]54)[C@@H](NC(=O)c4ccccc4)c4ccccc4)C(C)=C1C3(C)C)[C@]1(OC(C)=O)CO[C@@H]1C[C@@H]2O | – | – | 51 nM | 40 nM | 62 nM | – | – | – | – | – | IC50 (A2780): 680 nM
CC(=O)O[C@H]1C(=O)[C@@]2(C)[C@H]([C@H](OC(=O)c3ccccc3)[C@]3(O)C[C@H](OC(=O)[C@H](OC(=O)NCCNC(=O)[C@H](CCCCN)NC(=O)[C@H](Cc4ccccc4)NC(=O)[C@@H](C)N)[C@@H](NC(=O)c4ccccc4)c4ccccc4)C(C)=C1C3(C)C)[C@]1(OC(C)=O)CO[C@@H]1C[C@@H]2O.Cl | 0.011 µg/mL | 0.016 µg/mL | 4.5 nM | 77 nM | 4.9 nM | 0.041 µg/mL | 0.045 µg/mL | 0.013 µg/mL | 0.019 µg/mL | 0.04 µg/mL | –
CC(=O)O[C@H]1C(=O)[C@@]2(C)[C@H]([C@H](OC(=O)c3ccccc3)[C@]3(O)C[C@H](OC(=O)[C@H](OC(=O)C[C@H](O)C(=O)[O-])[C@@H](NC(=O)c4ccccc4)c4ccccc4)C(C)=C1C3(C)C)[C@]1(OC(C)=O)CO[C@@H]1C[C@@H]2O.[Na+] | < 0.003 µg/mL | < 0.003 µg/mL | – | – | – | – | – | – | – | – | solubility [1]: 600 µg/mL
CC(=O)O[C@H]1C(=O)[C@@]2(C)[C@H]([C@H](OC(=O)c3ccccc3)[C@]3(O)C[C@H](OC(=O)[C@H](OC(=O)N(C)CCNC(=O)[C@H](CCCCN)NC(=O)[C@H](Cc4ccccc4)NC(=O)[C@H](N)C(C)C)[C@@H](NC(=O)c4ccccc4)c4ccccc4)C(C)=C1C3(C)C)[C@]1(OC(C)=O)CO[C@@H]1C[C@@H]2O.Cl | > 0.063 µg/mL | > 0.063 µg/mL | 4.5 nM | 77 nM | 4.9 nM | 0.048 µg/mL | 0.047 µg/mL | 0.047 µg/mL | 0.045 µg/mL | > 0.063 µg/mL | –

Source: ChEMBL document CHEMBL1140624, “Improved biochemical strategies for targeted delivery of taxoids” (Bioorg Med Chem, 2007)
